In BindingDB's records for doi:10.1016/s0006-2952(97)00631-x (Roche Bioscience, 1998):
Several values for one entry are separate records, joined by “and”; a condition that tells them apart may be missing. Identical values can stand only once.

Assays:
[1] = target: T1, Alpha-2C adrenergic receptor (Homo sapiens, UniProt P18825)
T1 sequence (P18825 whole entry): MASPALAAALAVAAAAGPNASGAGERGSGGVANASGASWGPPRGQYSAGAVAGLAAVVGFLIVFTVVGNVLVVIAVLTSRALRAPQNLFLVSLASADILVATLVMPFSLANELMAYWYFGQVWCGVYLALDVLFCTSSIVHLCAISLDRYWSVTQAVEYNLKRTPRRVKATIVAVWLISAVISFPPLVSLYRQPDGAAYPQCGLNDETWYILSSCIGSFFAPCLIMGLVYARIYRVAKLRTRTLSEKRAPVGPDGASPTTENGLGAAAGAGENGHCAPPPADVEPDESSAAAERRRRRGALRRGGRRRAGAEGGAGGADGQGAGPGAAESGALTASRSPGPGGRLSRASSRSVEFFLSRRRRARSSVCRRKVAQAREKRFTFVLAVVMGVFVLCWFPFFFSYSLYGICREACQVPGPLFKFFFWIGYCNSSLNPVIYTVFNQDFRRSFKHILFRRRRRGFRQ

[2] = target: T2, Alpha-2A adrenergic receptor (Mus musculus, UniProt Q1HL33)
T2 sequence (Q1HL33 whole entry): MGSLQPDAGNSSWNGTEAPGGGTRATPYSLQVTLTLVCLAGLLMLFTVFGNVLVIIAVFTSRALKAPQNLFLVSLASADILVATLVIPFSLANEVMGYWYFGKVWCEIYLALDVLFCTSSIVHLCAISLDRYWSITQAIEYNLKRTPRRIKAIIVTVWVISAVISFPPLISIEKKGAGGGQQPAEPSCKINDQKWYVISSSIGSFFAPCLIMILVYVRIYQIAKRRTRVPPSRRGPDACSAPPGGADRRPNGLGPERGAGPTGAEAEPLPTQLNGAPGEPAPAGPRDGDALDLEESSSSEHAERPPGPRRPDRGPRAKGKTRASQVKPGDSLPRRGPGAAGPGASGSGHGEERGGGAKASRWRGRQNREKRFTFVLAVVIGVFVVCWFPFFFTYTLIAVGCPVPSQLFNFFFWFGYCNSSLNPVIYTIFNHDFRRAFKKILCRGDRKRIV

[3] = target: T3, Alpha-2A adrenergic receptor (Homo sapiens, UniProt P08913)
T3 sequence (P08913 whole entry): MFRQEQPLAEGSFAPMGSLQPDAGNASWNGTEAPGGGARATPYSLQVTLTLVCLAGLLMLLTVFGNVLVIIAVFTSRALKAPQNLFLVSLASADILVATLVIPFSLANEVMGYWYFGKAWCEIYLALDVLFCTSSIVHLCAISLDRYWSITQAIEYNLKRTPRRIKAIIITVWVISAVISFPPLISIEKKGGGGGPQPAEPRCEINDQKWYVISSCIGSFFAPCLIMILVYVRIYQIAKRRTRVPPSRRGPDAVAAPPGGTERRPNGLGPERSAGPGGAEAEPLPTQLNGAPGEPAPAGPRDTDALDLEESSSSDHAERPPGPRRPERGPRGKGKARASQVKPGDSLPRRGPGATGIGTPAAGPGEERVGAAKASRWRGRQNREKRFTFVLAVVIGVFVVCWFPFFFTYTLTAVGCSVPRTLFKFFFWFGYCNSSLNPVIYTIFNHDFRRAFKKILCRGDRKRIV

SMILES	Ki [1]	Ki [2]	Ki [3]
c1cc2c(c(NC3=NCCN3)c1)CCCC2	275 nM	15.5 nM	31.6 nM
Cc1cccc([C@@H](C)c2cnc[nH]2)c1C	95.5 nM	3.39 nM	
Clc1cccc(Cl)c1N=C1NCCN1 [2-(2,6-dichloroanilino)-2-imidazoline]		40.7 nM	
Cc1cccc(C)c1N=C1NCCCS1 [(5,6-Dihydro-4H-[1,3]thiazin-2-yl)-(2,6-dimethyl-phenyl)-amine]	> 10000 nM	2400 nM	5750 nM
Oc1ccc2c(c1O)CCC[C@@H]2C1=NCCN1 [A-54741]	776 nM	9.77 nM	
C=CCN1CCc2nc(N)sc2CC1 [B-HT 920]	955 nM		398 nM
C=CCN(C1=NCCN1)c1c(Cl)cccc1Cl [CAS_33178-86-8]	> 10000 nM		6030 nM
Fc1cccc(Cl)c1C1CC2=NCCN2C1 (centres undefined) [CAS_67249-51-8]	282 nM		7.94 nM
C[C@@H](Oc1c(Cl)cccc1Cl)C1=NCCN1 [CAS_81447-78-1]	174 nM		
CC(C)NCC(O)c1ccc(O)c(O)c1 (stereo not drawn) [Isoproterenol,(+)]		> 10000 nM	
CN1CCC2(CCN3CCc4c(oc5ccccc45)C3C2)N(C)C1=O (centres undefined) [MK-912]	0.07 nM		0.85 nM
N=C(N)NC(=O)Cc1c(Cl)cccc1Cl [NSC_3519]		20.4 nM	
CCn1ccnc1CC1COc2ccccc2O1 (centres undefined) [NSC_133621]	151 nM		316 nM
c1ccc2c(CC3=NCCN3)cccc2c1 [Naphazoline]	407 nM	11.5 nM and 17 nM	20.9 nM
NCC(O)c1ccc(O)c(O)c1 (stereo not drawn) [Noradrenaline,(+)]	1350 nM	1410 nM	
COC1(C2=NCCN2)COc2ccccc2O1 (centres undefined) [RX821002]	0.79 nM	0.62 nM	0.36 nM
Cc1cc(C(C)(C)C)cc(C)c1CC1=NCCN1 [SMR000058526]	129 nM	25.7 nM and 24 nM	15.1 nM
Cc1cc(C(C)(C)C)c(O)c(C)c1CC1=NCCN1 [SMR000059324]		15.5 nM and 25.7 nM	
CCc1cccc(CC)c1NC1=NCCN1 [ST 91]	617 nM	537 nM	575 nM
CC(N)C(O)c1ccc(O)c(O)c1 (stereo not drawn) [alpha-Methyl-(+/-)norepinephrine,(+/-)]	2880 nM		3630 nM
c1ccc2ccccc2c1 [naphtaline]	3.31 nM	7.76 nM and 9.33 nM	4.57 nM
Nc1cc(Cl)c(N=C2NCCN2)c(Cl)c1 [p-AMINOCLONIDINE]	21.4 nM		7.94 nM
C1COC(NC(C2CC2)C2CC2)=N1 [rilmenidine]	4680 nM	724 nM	1580 nM
